Legend:
B-RAF V600E = target: T1, B-RAF V600E (Homo sapiens, UniProt P15056, V600E); test: Target protein degradation, assay A: T-Rex 293 cells, HA-B-RAF_V600E, 96 well format; format: cell-based; conditions: T-Rex 293 HA-B-RAF_V600E cells, 24 hours, Examples 1-82
T1 construct: expressed in transfected cells; host or cells: T-Rex 293 cells (Invitrogen #R71007)
Procedure: A. T-Rex 293 Cells (96 well format)
T-Rex 293 cells were purchased from Invitrogen (#R71007), and stably transfected with a pcDNA4/TO_HA-B-RAF_V600E construct, using 400 ug Zeocin for selection. V600e cells are plated in ulbecco's Modified Eagle Medium (DMEM; Gibco #11965118) containing 10% fetal bovine serum (FBS; Gibco #16000044) and 1 ng/mL doxycycline (Selleckchem #4163) at a density of 5,000 cells/well in 50 μl on poly-D-lysine (PDL) coated, black clear bottom 96-well plates (Corning #354640) and incubated for 24 hours at 37° C. with 5% CO2. The following day 50 ul of tested compound was added at 2× concentration in DMEM with a final concentration ranging from 1 μM to 0.1 nM in 0.1% dimethylsulfoxide (DMSO), and incubated for 24 hours at 37° C. with 5% CO2. At the end of the experimental treatment, the media was flicked off and cells washed once with phosphate-buffered saline (PBS)++(PBS with CaCl and MgCl) and gently replacing with 200 μl PBS++ per well. The PBS++ was removed and 50 uL 4% paraformaldehyde (PFA; EMS #15710) in PBS++ was added, and incubate at room temperature for 15 minutes. Cells were washed once with PBS++ and 50 uL 0.1% Triton X-100 (Fisher #BP151-500) in PBS++ was added. Plate was incubate for 5 minutes at room temperature. Cells were was once with PBS++. Cells were blocked with 100 uL Licor blocking buffer (Licor #927-50000) for 1 hour at room temperature. Next, 50 uL of HA antibody (CST #3724) at 1:1000 in Licor blocking buffer was added, and the plate icubate overnight at 4° C. The plates were parafilmed to prevent evaporation. Plate was washed three times with 200 uL PBS++. Fifty microliters of HCS secondary antibody solution [1:1000 Hoechst (Invitrogen #H3570), 1:1000 phalloidin (Invitrogen #A22287) and 1:5000 Alexa fluor (Invitrogen #A11008)] was added and incubated for 1 hour. Plate was wash three times with 200 uL PBS++, and imaged on a high content reader (ImageXpress Micro XLS, Molecular Devices).
(§1) The concentration of an exemplary compound that leads to half maximal degradation (DC50) as well as the maximum degradation observed (Dmax, conventionally expressed as a percentage of control) is shown below in Table 2.

B-RAF G466V = target: T2, B-RAF G466V (Homo sapiens, UniProt P15056, G466V); test: Target protein degradation, assay B: T-Rex 293 cells, HA-B-RAF_G466V, 96 well format; format: cell-based; conditions: T-Rex 293 HA-B-RAF_G466V cells, 24 hours, Examples 1-82
T2 construct: expressed in transfected cells; host or cells: T-Rex 293 cells (Invitrogen #R71007)
Procedure: B. T-Rex 293 Cells (96 Well Format)
T-Rex 293 cells were purchased from Invitrogen (#R71007), and stably transfected with a pcDNA4/TO_HA-B-RAF_G466V construct, using 400 ug Zeocin for selection. G466V cells are plated in ulbecco's Modified Eagle Medium (DMEM; Gibco #11965118) containing 10% fetal bovine serum (FBS; Gibco #16000044) and 0.75 ng/mL doxycycline (Selleckchem #4163) at a density of 5,000 cells/well in 50 μl on poly-D-lysine (PDL) coated, black clear bottom 96-well plates (Corning #354640) and incubated for 24 hours at 37° C. with 5% CO2. The following day 50 ul of tested compound was added at 2× concentration in DMEM with a final concentration ranging from 30 nM to 3 pM in 0.1% dimethylsulfoxide (DMSO), and incubated for 24 hours at 37° C. with 5% CO2. At the end of the experimental treatment, the media was flicked off and cells washed once with phosphate-buffered saline (PBS)++(PBS with CaCl and MgCl) and gently replacing with 200 μl PBS++ per well. The PBS++ was removed and 50 uL 4% paraformaldehyde (PFA; EMS #15710) in PBS++ was added, and incubate at room temperature for 15 minutes. Cells were washed once with PBS++ and 50 uL 0.1% Triton X-100 (Fisher #BP151-500) in PBS++ was added. Plate was incubate for 5 minutes at room temperature. Cells were was once with PBS++. Cells were blocked with 100 uL Licor blocking buffer (Licor #927-50000) for 1 hour at room temperature. Next, 50 uL of HA antibody (CST #3724) at 1:1000 in Licor blocking buffer was added, and the plate icubate overnight at 4° C. The plates were parafilmed to prevent evaporation. Plate was washed three times with 200 uL PBS++. Fifty microliters of HCS secondary antibody solution [1:1000 Hoechst (Invitrogen #H3570), 1:1000 phalloidin (Invitrogen #A22287) and 1:5000 Alexa fluor (Invitrogen #A11008)] was added and incubated for 1 hour. Plate was wash three times with 200 uL PBS++, and imaged on a high content reader (ImageXpress Micro XLS, Molecular Devices).
as §1

T2 sequence (P15056 whole entry G466V): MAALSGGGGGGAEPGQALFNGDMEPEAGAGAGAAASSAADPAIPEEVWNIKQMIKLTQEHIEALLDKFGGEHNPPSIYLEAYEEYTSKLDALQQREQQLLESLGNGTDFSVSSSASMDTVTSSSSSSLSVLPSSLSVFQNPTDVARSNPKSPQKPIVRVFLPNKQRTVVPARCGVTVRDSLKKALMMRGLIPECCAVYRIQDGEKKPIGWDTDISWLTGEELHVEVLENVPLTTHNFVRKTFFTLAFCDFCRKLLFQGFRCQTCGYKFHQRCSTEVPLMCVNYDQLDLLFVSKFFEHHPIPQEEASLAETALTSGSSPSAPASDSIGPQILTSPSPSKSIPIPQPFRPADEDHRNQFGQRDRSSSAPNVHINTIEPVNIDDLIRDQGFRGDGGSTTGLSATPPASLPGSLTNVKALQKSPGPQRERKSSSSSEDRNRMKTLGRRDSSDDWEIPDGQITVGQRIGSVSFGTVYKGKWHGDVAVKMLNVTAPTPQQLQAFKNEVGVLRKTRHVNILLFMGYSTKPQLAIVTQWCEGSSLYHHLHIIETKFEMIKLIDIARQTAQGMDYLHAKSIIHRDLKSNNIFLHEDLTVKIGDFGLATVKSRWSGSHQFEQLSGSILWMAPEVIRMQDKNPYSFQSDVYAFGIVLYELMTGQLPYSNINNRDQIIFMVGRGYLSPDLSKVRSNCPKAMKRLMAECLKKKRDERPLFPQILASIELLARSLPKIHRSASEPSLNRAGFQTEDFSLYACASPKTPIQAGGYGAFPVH
T1 sequence (P15056 whole entry V600E): as the sequence (P15056 whole entry G466V) above, with V466G, V600E counted along it

`N#Cc1c(NS(=O)(=O)N2CC[C@@H](F)C2)ccc(F)c1Oc1ccc2ncn(-c3ccc(N4CCC(OC5CCN(c6ccc7c(c6)CN(C6CCC(=O)NC6=O)C7=O)CC5)CC4)cc3)c(=O)c2c1` (stereo partly drawn) [Example 82, (3R)—N-{2-cyano-3-[(3-{4-[4-({1-[2-(2,6-dioxopiperidin-3-yl)-1-oxo-2,3-dihydro-1H-isoindol-5-yl]piperidin-4-yl}oxy)piperidin-1-yl]phenyl}-4-oxo-3,4-dihydroquinazolin-6-yl)oxy]-4-fluorophenyl}-3-fluoropyrrolidine-1-sulfonamide] gave a DC50 (B-RAF V600E) of 50 to 500 nM, a Dmax (B-RAF V600E) of 35 to 70% and a DC50 (B-RAF G466V) of 1 to 10 nM. For the same compound, the Dmax (B-RAF G466V) was ≤ 35%.
For `N#Cc1c(NS(=O)(=O)N2CC[C@@H](F)C2)ccc(F)c1Oc1ccc2ncn(-c3ccc(N4CCN(C(=O)CC5(O)CCN(c6ccc7c(c6)CN([C@H]6CCC(=O)NC6=O)C7=O)CC5)CC4)nc3)c(=O)c2c1` [Example 65, (3R)-N-(2-cyano-3-{[3-(6-{4-[2-(1-{2-[(3S)-2,6-dioxopiperidin-3-yl]-1-oxo-2,3-dihydro-1H-isoindol-5-yl}-4-hydroxypiperidin-4-yl)acetyl]piperazin-1-yl}pyridin-3-yl)-4-oxo-3,4-dihydroquinazolin-6-yl]oxy}-4-fluorophenyl)-3-fluoropyrrolidine-1-sulfonamide], the DC50 (B-RAF V600E) was > 500 nM, the DC50 (B-RAF G466V) was 10 to 30 nM and the Dmax (B-RAF G466V) was 35 to 70%.
`N#Cc1c(NS(=O)(=O)N2CC[C@@H](F)C2)ccc(F)c1Oc1ccc2ncn(-c3ccc(N4CCN(CC5CCN(c6ccc([C@H]7CCC(=O)NC7=O)cc6F)CC5)CC4)cc3)c(=O)c2c1` (single isomer, unassigned) [Example 80, (3R)—N-(2-cyano-3-{[3-(4-{4-[(1-{4-[(3R*)-2,6-dioxopiperidin-3-yl]-2-fluorophenyl}piperidin-4-yl)methyl]piperazin-1-yl}phenyl)-4-oxo-3,4-dihydroquinazolin-6-yl]oxy}-4-fluorophenyl)-3-fluoropyrrolidine-1-sulfonamide] gave a DC50 (B-RAF V600E) of 50 to 500 nM, a Dmax (B-RAF V600E) of 35 to 70% and a DC50 (B-RAF G466V) of 1 to 10 nM. It also gave a Dmax (B-RAF G466V) of 35 to 70%.
In the case of `N#Cc1c(NS(=O)(=O)N2CC[C@@H](F)C2)ccc(F)c1Oc1ccc2ncn(-c3ccc(N4CCN(CC5CN(c6ccc7c(c6)CN(C6CCC(=O)NC6=O)C7=O)C5)CC4)nc3)c(=O)c2c1` (stereo partly drawn) [Example 8, (3R)-N-{2-cyano-3-[(3-{6-[4-({1-[2-(2,6-dioxopiperidin-3-yl)-1-oxo-2,3-dihydro-1H-isoindol-5-yl]azetidin-3-yl}methyl)piperazin-1-yl]pyridin-3-yl}-4-oxo-3,4-dihydroquinazolin-6-yl)oxy]-4-fluorophenyl}-3-fluoropyrrolidine-1-sulfonamide], the DC50 (B-RAF V600E) is reported as 50 to 500 nM, the Dmax (B-RAF V600E) is reported as 35 to 70% and the DC50 (B-RAF G466V) is reported as 1 to 10 nM. The Dmax (B-RAF G466V) was ≤ 35%.
With `N#Cc1c(NS(=O)(=O)N2CC[C@@H](F)C2)ccc(F)c1Oc1ccc2ncn(C3CCN(CC4CCN(c5ccc6c(c5)CN(C5CCC(=O)NC5=O)C6=O)CC4)CC3)c(=O)c2c1` (stereo partly drawn) [Example 6, (3R)-N-[2-cyano-3-({3-[1-({1-[2-(2,6-dioxopiperidin-3-yl)-1-oxo-2,3-dihydro-1H-isoindol-5-yl]piperidin-4-yl}methyl)piperidin-4-yl]-4-oxo-3,4-dihydroquinazolin-6-yl}oxy)-4-fluorophenyl]-3-fluoropyrrolidine-1-sulfonamide] the DC50 (B-RAF V600E) was > 500 nM, the DC50 (B-RAF G466V) was ≤ 1 nM and the Dmax (B-RAF G466V) was ≤ 35%.
`N#Cc1c(NS(=O)(=O)N2CC[C@@H](F)C2)ccc(F)c1Oc1ccc2ncn(-c3ccc(N4CCN(c5ccc6c(c5)CN(C5CCC(=O)NC5=O)C6=O)CC4)cc3)c(=O)c2c1` (stereo partly drawn) [Example 5, (3R)—N-[2-cyano-3-[3-[4-[4-[2-(2,6-dioxo-3-piperidyl)-1-oxo-isoindolin-5-yl]piperazin-1-yl]phenyl]-4-oxo-quinazolin-6-yl]oxy-4-fluoro-phenyl]-3-fluoro-pyrrolidine-1-sulfonamide] was tested, and the DC50 (B-RAF V600E) was > 500 nM and the DC50 (B-RAF G466V) was > 30 nM.
Compound `N#Cc1c(NS(=O)(=O)N2CC[C@@H](F)C2)ccc(F)c1Oc1ccc2ncn(-c3ccc(N4CCN(CC5CCN(c6cccc7c6ccn7C6CCC(=O)NC6=O)CC5)CC4)cc3)c(=O)c2c1` (stereo partly drawn) [Example 74, (3R)—N-{2-cyano-3-[(3-{4-[4-({1-[1-(2,6-dioxopiperidin-3-yl)-1H-indol-4-yl]piperidin-4-yl}methyl)piperazin-1-yl]phenyl}-4-oxo-3,4-dihydroquinazolin-6-yl)oxy]-4-fluorophenyl}-3-fluoropyrrolidine-1-sulfonamide] has a DC50 (B-RAF V600E) of 50 to 500 nM, a Dmax (B-RAF V600E) of 35 to 70% and a DC50 (B-RAF G466V) of 1 to 10 nM. The Dmax (B-RAF G466V) was ≤ 35%.
In the case of `N#Cc1c(NS(=O)(=O)N2CC[C@@H](F)C2)ccc(F)c1Oc1ccc2ncn(-c3ccc(N4CCN(CC5CCN(c6ccc(F)c(C(=O)NC7CCC(=O)NC7=O)c6)CC5)CC4)cc3)c(=O)c2c1` (stereo partly drawn) [Example 15, 5-(4-{[4-(4-{6-[2-cyano-6-fluoro-3-({[(3R)-3-fluoropyrrolidin-1-yl]sulfonyl}amino)phenoxy]-4-oxo-3,4-dihydroquinazolin-3-yl}phenyl)piperazin-1-yl]methyl}piperidin-1-yl)-N-(2,6-dioxopiperidin-3-yl)-2-fluorobenzamide], the DC50 (B-RAF V600E) is reported as > 500 nM and the DC50 (B-RAF G466V) is reported as > 30 nM.
For `N#Cc1c(NS(=O)(=O)N2CC[C@@H](F)C2)ccc(F)c1Oc1ccc2ncn(-c3ccc(N4CCN(CC5CCN(c6ccc(C7CCC(=O)NC7=O)cc6F)CC5)CC4)nc3)c(=O)c2c1` (stereo partly drawn) [Example 14, (3R)-N-{2-cyano-3-[(3-{6-[4-({1[4-(2,6-dioxopiperidin-3-yl)-2-fluorophenyl]piperidin-4-yl}methyl)piperazin-1-yl]pyridin-3-yl}-4-oxo-3,4-dihydroquinazolin-6-yl)oxy]-4-fluorophenyl}-3-fluoropyrrolidine-1-sulfonamide], the DC50 (B-RAF V600E) was 50 to 500 nM, the Dmax (B-RAF V600E) was 35 to 70% and the DC50 (B-RAF G466V) was > 30 nM.
In the case of `N#Cc1c(NS(=O)(=O)N2CC[C@@H](F)C2)ccc(F)c1Oc1ccc2ncn(-c3ccc(N4CCN(c5ccc6c(c5)C(=O)N(C5CCC(=O)NC5=O)C6=O)CC4)cc3)c(=O)c2c1` (stereo partly drawn) [Example 71, (3R)-N-(2-cyano-3-{[3-(4-{4-[2-(2,6-dioxopiperidin-3-yl)-1,3-dioxo-2,3-dihydro-1H-isoindol-5-yl]piperazin-1-yl}phenyl)-4-oxo-3,4-dihydroquinazolin-6-yl]oxy}-4-fluorophenyl)-3-fluoropyrrolidine-1-sulfonamide], the DC50 (B-RAF V600E) is reported as > 500 nM and the DC50 (B-RAF G466V) is reported as > 30 nM.
In the case of `N#Cc1c(NS(=O)(=O)N2CC[C@@H](F)C2)ccc(F)c1Oc1ccc2ncn(-c3cnc(N4CCN(CC5CN(c6ccc7c(c6)CN(C6CCC(=O)NC6=O)C7=O)C5)CC4)nc3)c(=O)c2c1` (stereo partly drawn) [Example 9, (3R)-N-{2-cyano-3-[(3-{2-[4-({1-[2-(2,6-dioxopiperidin-3-yl)-1-oxo-2,3-dihydro-1H-isoindol-5-yl]azetidin-3-yl}methyl)piperazin-1-yl]pyrimidin-5-yl}-4-oxo-3,4-dihydroquinazolin-6-yl)oxy]-4-fluorophenyl}-3-fluoropyrrolidine-1-sulfonamide], the DC50 (B-RAF V600E) is reported as 50 to 500 nM, the Dmax (B-RAF V600E) is reported as 35 to 70% and the DC50 (B-RAF G466V) is reported as > 30 nM.
